The record followed here is ChEMBL document CHEMBL1128922, “Thiophenesulfonamides as endothelin receptor antagonists” (Bioorg Med Chem Lett, 1996).

The target of one assay is T1, Endothelin-1 receptor (Homo sapiens, UniProt P25101).
T1 sequence (P25101 whole entry): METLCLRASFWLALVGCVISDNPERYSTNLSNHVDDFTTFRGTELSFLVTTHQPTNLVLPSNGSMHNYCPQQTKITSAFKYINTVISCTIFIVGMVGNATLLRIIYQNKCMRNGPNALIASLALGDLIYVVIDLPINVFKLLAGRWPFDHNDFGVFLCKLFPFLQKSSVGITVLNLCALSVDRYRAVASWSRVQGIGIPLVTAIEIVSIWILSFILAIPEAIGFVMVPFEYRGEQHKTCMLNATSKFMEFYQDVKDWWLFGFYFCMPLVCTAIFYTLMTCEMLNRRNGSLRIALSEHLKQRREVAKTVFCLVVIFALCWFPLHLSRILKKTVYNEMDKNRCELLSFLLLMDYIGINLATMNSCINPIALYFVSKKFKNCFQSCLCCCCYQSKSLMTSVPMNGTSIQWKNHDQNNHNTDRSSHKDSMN
The assay can be described thus: Compound was tested for binding affinity against Endothelin A receptor.

Assay [1] concerns the target T2, Endothelin receptor type B (Homo sapiens, UniProt P24530).
T2 sequence (P24530 whole entry): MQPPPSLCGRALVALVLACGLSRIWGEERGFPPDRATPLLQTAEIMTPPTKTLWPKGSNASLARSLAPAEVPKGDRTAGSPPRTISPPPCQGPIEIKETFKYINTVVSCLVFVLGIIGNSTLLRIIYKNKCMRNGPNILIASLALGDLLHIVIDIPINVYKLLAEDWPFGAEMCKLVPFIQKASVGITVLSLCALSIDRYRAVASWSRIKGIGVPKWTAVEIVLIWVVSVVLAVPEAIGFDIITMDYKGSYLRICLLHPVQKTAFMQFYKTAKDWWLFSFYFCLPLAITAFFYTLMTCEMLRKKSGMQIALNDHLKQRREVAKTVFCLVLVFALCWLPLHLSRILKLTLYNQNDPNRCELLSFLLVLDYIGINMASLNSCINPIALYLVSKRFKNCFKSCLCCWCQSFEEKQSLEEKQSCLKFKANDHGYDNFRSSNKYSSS
Kind of assay: Compound was tested for binding affinity against Endothelin B receptor.

The structures appear in SMILES notation.

For the molecule `Cc1noc(NS(=O)(=O)c2ccsc2-c2ccccc2)c1Br`, the half-maximal inhibitory concentration (IC50) turned out to be 0.603 µM on Endothelin-1 receptor and 74.1 µM in assay [1].
Consider `Cc1noc(NS(=O)(=O)c2sccc2-c2ccc(CC(C)C)cc2)c1Br`, for which the IC50 in assay [1] turned out to be 2.9 µM. This counts as single-digit micromolar.
As to `COc1ccc(-c2ccsc2S(=O)(=O)Nc2onc(C)c2Br)cc1`, the IC50 came to 0.334 µM at Endothelin-1 receptor and 62.1 µM in assay [1].
The like results for `Cc1noc(NS(=O)(=O)c2ccccc2)c1Br` were, in that order, 2.51 µM and over 100 µM.
The corresponding values for `Cc1cc(CC(C)C)ccc1-c1ccsc1S(=O)(=O)Nc1onc(C)c1Br` are 0.0479 µM and 1.51 µM.
Regarding `CCCc1ccc(-c2ccsc2S(=O)(=O)Nc2onc(C)c2Br)cc1`, in assay [1], the IC50 was 8.16 µM.
Take `Cc1cc(CCC(C)C)ccc1-c1ccsc1S(=O)(=O)Nc1onc(C)c1Br`: the 50% inhibitory concentration (IC50) at Endothelin-1 receptor was 0.115 µM; in assay [1] it was 2.45 µM.
The corresponding values for `Cc1noc(NS(=O)(=O)c2sccc2Oc2ccccc2)c1Br` are 1.45 µM and 35.5 µM.
The like results for `Cc1noc(NS(=O)(=O)c2ccsc2)c1Br` were, in that order, 2.75 µM and over 100 µM.
For `Cc1ccc(-c2ccsc2S(=O)(=O)Nc2onc(C)c2Br)cc1`, the results for the IC50 (at Endothelin-1 receptor; in assay [1]) were 0.315 µM and 95.5 µM, respectively.
In the case of `Cc1ccccc1-c1ccsc1S(=O)(=O)Nc1onc(C)c1Br`, the 50% inhibitory concentration (IC50) was 0.306 µM on Endothelin-1 receptor and over 100 µM in assay [1].
The like results for `Cc1noc(NS(=O)(=O)c2sccc2Cc2ccccc2)c1Br` were, in that order, 2.6 µM and 39.8 µM.
The corresponding values for `Cc1noc(NS(=O)(=O)c2cccs2)c1Br` are 1.91 µM and over 100 µM.
Consider `COc1cccc(-c2ccsc2S(=O)(=O)Nc2onc(C)c2Br)c1`, for which the concentration for half-maximal inhibition (IC50) was 1.32 µM on Endothelin-1 receptor and 56.3 µM in assay [1].
The corresponding values for `CCCc1ccc(-c2ccsc2S(=O)(=O)Nc2onc(C)c2Br)c(C)c1` are 0.0429 µM and 2.91 µM.
The corresponding values for `Cc1noc(NS(=O)(=O)c2sccc2-c2ccccc2)c1Br` are 0.819 µM and 64.4 µM.
Take `Cc1noc(NS(=O)(=O)c2ccccc2-c2ccccc2)c1Br`: the 50% inhibitory concentration (IC50) at Endothelin-1 receptor is 0.0162 µM; in assay [1], over 100 µM.
The corresponding values for `Cc1noc(NS(=O)(=O)c2cc(-c3ccccc3)cs2)c1Br` are 3.39 µM and 13.5 µM.
At Endothelin-1 receptor, `Cc1noc(NS(=O)(=O)c2sccc2-c2ccc(CCC(C)C)cc2)c1Br` gave an IC50 of 0.182 µM.
